Experimental data from publication PMC12926979, “Ectopic, hepatic GLP-1R agonism enhances the weight loss efficacy of GLP-1 analogues” (Molecular Metabolism, 2026).

Experiments:
hGLP-1R = target: T1, hGLP-1R (Homo sapiens, UniProt P43220); settings: cited from earlier work
T1 construct: expressed in transfected cells
From the text: Second, agonism of the ectopic, hepatic GLP-1R creates a novel mechanism of drug clearance and may have effects on biodistribution.

[1] = Pharmacokinetic study in WT DIO mice dosed with control or Glp1r expressing AAV; type: in vivo, mouse; settings: Glp1r AAV treated vs control groups; Figure 2K
Protocol: Male C57Bl6 mice were randomized and evenly distributed to test groups (n = 8 per group) according to body weight. Animals received tail vein injection of the control AAV or mGLP-1R expressing AAV at a dose of 10^12 GC per mouse on day −7 for each study. […] Treatments were administered via daily SC injection for the duration of the study; dosage is indicated within each figure. Dose escalation regimens for each peptide were determined based on previously published studies. Body weight and food intake was measured every other day throughout the study.

C57Bl6 mice = experiment: Cardiovascular radiotelemetry (heart rate, mean arterial pressure); type: in vivo, mouse; settings: Glp1r AAV treated mice; 0.5, 1 and 3 nmol/kg SC; Figure 2H
From the text: Male C57Bl6 mice (8–10 weeks old) were anesthetized with isoflurane and surgically implanted with pressure transmitters (PA-C10, DSI), with the catheter inserted into the left carotid artery and the body of the transmitter between the outer skin layer and abdomen wall in the left flank of the mouse. After recovering, they were singly housed and monitored in their home cages. Mice were given control and experimental AAV virus via tail vein injections at least 7 days prior to CV study. Transmitters were turned on via magnets and SC vehicle injections were administered 2 h after the onset of the light phase for baseline measurements. At t = 24 h, mice were grouped if needed and SC compound injections began. Stressors were allowed only from 9:00 AM to 11:00 AM during the light phase, with continuous sampling throughout the day. Measurements of pulse pressure, arterial pressures, and heart rate values were extracted with the DataQuest A.R.T. 4.1 software and averaged into 3-hour bins for analysis.

T1 sequence (P43220 24-463): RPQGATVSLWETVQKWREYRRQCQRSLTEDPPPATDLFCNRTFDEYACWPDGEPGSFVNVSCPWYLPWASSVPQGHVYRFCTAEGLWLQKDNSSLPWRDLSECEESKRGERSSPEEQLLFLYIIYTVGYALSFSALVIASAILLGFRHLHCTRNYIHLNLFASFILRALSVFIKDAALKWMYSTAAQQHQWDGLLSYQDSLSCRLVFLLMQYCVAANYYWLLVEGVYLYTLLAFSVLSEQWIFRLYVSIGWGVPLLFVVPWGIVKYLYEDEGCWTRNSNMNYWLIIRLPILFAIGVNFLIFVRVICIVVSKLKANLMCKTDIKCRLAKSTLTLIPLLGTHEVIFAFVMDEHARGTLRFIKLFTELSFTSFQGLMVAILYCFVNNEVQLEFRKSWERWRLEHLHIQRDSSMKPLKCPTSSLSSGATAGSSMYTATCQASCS

In the case of tirzepatide, the GLP-1R internalization profile (hGLP-1R) is listed as “low receptor internalising profile”.

With `CC[C@H](C)[C@H](NC(=O)[C@H](Cc1ccccc1)NC(=O)[C@H](CCC(=O)O)NC(=O)[C@H](CCCCNC(=O)COCCOCCNC(=O)COCCOCCNC(=O)CC[C@H](NC(=O)CCCCCCCCCCCCCCCCC(=O)O)C(=O)O)NC(=O)[C@H](C)NC(=O)[C@H](C)NC(=O)[C@H](CCC(N)=O)NC(=O)CNC(=O)[C@H](CCC(=O)O)NC(=O)[C@H](CC(C)C)NC(=O)[C@H](Cc1ccc(O)cc1)NC(=O)[C@H](CO)NC(=O)[C@H](CO)NC(=O)[C@@H](NC(=O)[C@H](CC(=O)O)NC(=O)[C@H](CO)NC(=O)[C@@H](NC(=O)[C@H](Cc1ccccc1)NC(=O)[C@@H](NC(=O)CNC(=O)[C@H](CCC(=O)O)NC(=O)C(C)(C)NC(=O)[C@@H](N)Cc1cnc[nH]1)[C@@H](C)O)[C@@H](C)O)C(C)C)C(=O)N[C@@H](C)C(=O)N[C@@H](Cc1c[nH]c2ccccc12)C(=O)N[C@@H](CC(C)C)C(=O)N[C@H](C(=O)N[C@@H](CCCNC(=N)N)C(=O)NCC(=O)N[C@@H](CCCNC(=N)N)C(=O)NCC(=O)O)C(C)C` [semaglutide] the “semaglutide clearance with ectopic hepatic GLP-1R” value [1] was “significant increase in semaglutide clearance” and the “Heart rate effect of semaglutide + Glp1r AAV” value (C57Bl6 mice) was “reduces this effect”.
